Data published in the supplement of paper PMC10627819.

Legend:
S. aureus Newman = assay: Bliss interaction score (quartile over a dose matrix) (fitness difference); higher = more antagonism (negative = synergy)
Procedure, shortened: (§1)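 Fitness was derived from optical density at entry into stationary phase, divided by the robust mean of the no-drug wells on the same plate. That reading was taken as OD595, and the ratio was capped at 1. Single-drug fitness was inferred from the combination data. The Bliss score, observed fitness minus the expected product of single-drug fitness, was summarised as quartiles over technical, biological and donor/recipient replicates.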

S. aureus DSM 20231 = assay: as above
Procedure, shortened: as §1

S. pneumoniae D39V [1] = assay: as above
Procedure, shortened: as §1

B. subtilis 168 = assay: as above
Procedure, shortened: as §1

S. pneumoniae D39V [2] = assay: fitness (endpoint OD595 vs no drug) (fraction); higher = more growth
Procedure, shortened: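 Fitness was defined as the optical density at the transition into stationary phase relative to the robust mean of no-drug control wells. Values were capped at 1. Cultures were started at OD595 0.01 in 384-well plates (30 µl, or 55 µl for S. pneumoniae) in TSB, LB Lennox or CY at 37 °C. OD595 was recorded every 30 min over 14 h, with the first reading subtracted as background.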
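For Bliss interaction score (quartile over a dose matrix) in this document: first quartile when negative (synergy) and third quartile when positive (antagonism).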

Clc1ccc(COC(Cn2ccnc2)c2ccc(Cl)cc2Cl)c(Cl)c1 (centres undefined) [Miconazole] + CCC(C)C1C(=O)NC(=C)C(=O)NC(C(=O)NC(CSCC(C(=O)N1)NC(=O)/C(=C/C)/NC(=O)C(C(C)CC)N)C(=O)NC2C(SCC(NC(=O)CNC(=O)C3CCCN3C2=O)C(=O)NC(CCCCN)C(=O)NC4C(SCC(NC(=O)CNC(=O)C(NC(=O)C(NC(=O)C(NC(=O)CNC4=O)C)CC(C)C)CCSC)C(=O)NC(CC(=O)N)C(=O)NC(CCSC)C(=O)NC(CCCCN)C(=O)NC5C(SCC6C(=O)NC(C(=O)NC(CSC(C(C(=O)N6)NC(=O)C(NC5=O)C)C)C(=O)NC(CO)C(=O)NC(C(C)CC)C(=O)NC(CC7=CN=CN7)C(=O)NC(C(C)C)C(=O)NC(=C)C(=O)NC(CCCCN)C(=O)O)CC8=CN=CN8)C)C)C)CC(C)C [Nisin]
main component drawn
Conditions	Bliss interaction score
B. subtilis 168	0.0476
S. aureus DSM 20231	-0.0527
S. aureus Newman	-0.0601
S. pneumoniae D39V [1]	0.166

fitness, S. pneumoniae D39V [2], main component drawn
Conditions	first compound 1.073 µg/mL	first compound 1.25 µg/mL	first compound 2.145 µg/mL	first compound 2.5 µg/mL	first compound 4.29 µg/mL	first compound 5 µg/mL
partner 0.4275 µg/mL	–	0.979	–	0.998	–	0.987
partner 0.855 µg/mL	–	0.973	–	0.965	–	0.977
partner 1.6 µg/mL	0.264	–	0.16	–	0.172	–
partner 1.71 µg/mL	–	0.0702	–	0.146	–	0.119
partner 3.2 µg/mL	0.0113	–	0.0171	–	0.151	–
partner 6.4 µg/mL	0.0029	–	0.0131	–	0.168	–

Clc1ccc(COC(Cn2ccnc2)c2ccc(Cl)cc2Cl)c(Cl)c1 (centres undefined) [Miconazole] + CCN(CC)CCOC(=O)c1ccc(N)cc1 [Procaine]
Conditions	Bliss interaction score
B. subtilis 168	0.0691
S. aureus DSM 20231	0.0418
S. aureus Newman	-0.0389
S. pneumoniae D39V [1]	0.0592

fitness, S. pneumoniae D39V [2]
Conditions	first compound 1.073 µg/mL	first compound 2.145 µg/mL	first compound 4.29 µg/mL
partner 85.5 µg/mL	≥ 1	≥ 1	0.936
partner 171 µg/mL	0.993	0.999	0.899
partner 342 µg/mL	0.997	≥ 1	0.871

fitness, S. pneumoniae D39V [2], one replicate
Conditions	first compound 1.25 µg/mL	first compound 2.5 µg/mL	first compound 5 µg/mL
partner 85.5 µg/mL	0.983	≥ 1	≥ 1
partner 171 µg/mL	0.971	0.976	0.992
partner 342 µg/mL	0.968	0.992	≥ 1

Clc1ccc(COC(Cn2ccnc2)c2ccc(Cl)cc2Cl)c(Cl)c1 (centres undefined) [Miconazole] + CN1C2=CC=CC=C2N=C3C1=CC=CC3=O [Pyocyanin]
Conditions	Bliss interaction score
B. subtilis 168	-0.0752
S. aureus DSM 20231	0.0453
S. aureus Newman	0.0548
S. pneumoniae D39V [1]	0.0535

fitness, S. pneumoniae D39V [2]
Conditions	first compound 1.073 µg/mL	first compound 2.145 µg/mL	first compound 4.29 µg/mL
partner 0.325 µg/mL	≥ 1	≥ 1	≥ 1
partner 0.65 µg/mL	0.975	1	0.908
partner 1.3 µg/mL	0.787	–	0.729

fitness, S. pneumoniae D39V [2], one replicate
Conditions	first compound 1.25 µg/mL	first compound 2.5 µg/mL	first compound 5 µg/mL
partner 0.325 µg/mL	0.917	0.916	0.93
partner 0.65 µg/mL	0.963	0.905	0.907

Clc1ccc(COC(Cn2ccnc2)c2ccc(Cl)cc2Cl)c(Cl)c1 (centres undefined) [Miconazole] + CN(C)c1cc(NC(=O)CNC(C)(C)C)c(O)c2c1C[C@H]1C[C@H]3[C@H](N(C)C)C(O)=C(C(N)=O)C(=O)[C@@]3(O)C(O)=C1C2=O [Tigecycline]
Conditions	Bliss interaction score
B. subtilis 168	0.0621
S. aureus DSM 20231	0.0455
S. aureus Newman	0.0412
S. pneumoniae D39V [1]	0.0957

fitness, S. pneumoniae D39V [2]
Conditions	first compound 1.073 µg/mL	first compound 1.25 µg/mL	first compound 2.145 µg/mL	first compound 2.5 µg/mL	first compound 4.29 µg/mL	first compound 5 µg/mL
partner 0.65 µg/mL	0.992	0.974	0.998	0.982	≥ 1	≥ 1
partner 1.3 µg/mL	≥ 1	0.997	0.992	0.991	≥ 1	≥ 1
partner 2.6 µg/mL	0.999	0.982	≥ 1	0.993	0.998	0.927

Clc1ccc(COC(Cn2ccnc2)c2ccc(Cl)cc2Cl)c(Cl)c1 (centres undefined) [Miconazole] + CN(N=O)C(=O)N[C@@H](C=O)[C@@H](O)[C@H](O)[C@H](O)CO [Streptozotocin]
Conditions	Bliss interaction score
B. subtilis 168	0.143
S. aureus DSM 20231	0.039
S. aureus Newman	0.0421
S. pneumoniae D39V [1]	0.0621

fitness, S. pneumoniae D39V [2]
Conditions	first compound 1.073 µg/mL	first compound 2.145 µg/mL	first compound 4.29 µg/mL
partner 1.2 µg/mL	0.997	0.982	0.939
partner 2.4 µg/mL	0.989	0.988	0.938
partner 4.8 µg/mL	≥ 1	0.977	0.923

fitness, S. pneumoniae D39V [2], one replicate
Conditions	first compound 1.25 µg/mL	first compound 2.5 µg/mL	first compound 5 µg/mL
partner 1.2 µg/mL	0.924	0.903	0.942
partner 2.4 µg/mL	0.971	0.94	≥ 1
partner 4.8 µg/mL	0.788	0.813	0.841

Clc1ccc(COC(Cn2ccnc2)c2ccc(Cl)cc2Cl)c(Cl)c1 (centres undefined) [Miconazole] + CN[C@@H]1[C@H](O)[C@H](NC)[C@H]2O[C@@]3(O)C(=O)C[C@@H](C)O[C@H]3O[C@@H]2[C@H]1O [Spectinomycin]
Conditions	Bliss interaction score
B. subtilis 168	0.0664
S. aureus DSM 20231	-0.0228
S. aureus Newman	0.0708
S. pneumoniae D39V [1]	0.09

fitness, S. pneumoniae D39V [2]
Conditions	first compound 1.073 µg/mL	first compound 2.145 µg/mL	first compound 4.29 µg/mL
partner 4 µg/mL	≥ 1	≥ 1	0.88
partner 8 µg/mL	0.966	0.995	0.961
partner 16 µg/mL	0.942	0.963	0.893

fitness, S. pneumoniae D39V [2], one replicate
Conditions	first compound 1.25 µg/mL	first compound 2.5 µg/mL	first compound 5 µg/mL
partner 4 µg/mL	0.963	0.95	0.985
partner 8 µg/mL	0.891	0.879	0.906

Clc1ccc(COC(Cn2ccnc2)c2ccc(Cl)cc2Cl)c(Cl)c1 (centres undefined) [Miconazole] + CN[C@@H]1[C@H](O[C@H]2[C@H](O[C@H]3[C@H](O)[C@@H](O)[C@H](N=C(N)N)[C@@H](O)[C@@H]3N=C(N)N)O[C@@H](C)[C@]2(O)C=O)O[C@@H](CO)[C@H](O)[C@H]1O [Streptomycin]
Conditions	Bliss interaction score
B. subtilis 168	0.0605
S. aureus DSM 20231	0.0476
S. aureus Newman	0.0487
S. pneumoniae D39V [1]	0.0827

fitness, S. pneumoniae D39V [2]
Conditions	first compound 1.073 µg/mL	first compound 1.25 µg/mL	first compound 2.145 µg/mL	first compound 2.5 µg/mL	first compound 4.29 µg/mL	first compound 5 µg/mL
partner 2 µg/mL	0.978	–	0.977	–	0.936	–
partner 4 µg/mL	0.988	0.909	0.988	0.904	0.946	0.912
partner 8 µg/mL	≥ 1	0.86	≥ 1	0.832	0.932	0.86

fitness, S. pneumoniae D39V [2], one replicate
Conditions	first compound 1.25 µg/mL	first compound 2.5 µg/mL	first compound 5 µg/mL
partner 2 µg/mL	0.922	0.964	0.977
partner 16 µg/mL	0.712	0.632	0.679

Clc1ccc(COC(Cn2ccnc2)c2ccc(Cl)cc2Cl)c(Cl)c1 (centres undefined) [Miconazole] + CN[C@H](CC(C)C)C(=O)N[C@H]1C(=O)N[C@@H](CC(N)=O)C(=O)N[C@H]2C(=O)N[C@H]3C(=O)N[C@H](C(=O)N[C@H](C(=O)O)c4cc(O)cc(O)c4-c4cc3ccc4O)[C@H](O)c3ccc(c(Cl)c3)Oc3cc2cc(c3O[C@@H]2O[C@H](CO)[C@@H](O)[C@H](O)[C@H]2O[C@H]2C[C@](C)(N)[C@H](O)[C@H](C)O2)Oc2ccc(cc2Cl)[C@H]1O [Vancomycin]
Conditions	Bliss interaction score
B. subtilis 168	0.0343
S. aureus DSM 20231	0.0309
S. aureus Newman	0.0654
S. pneumoniae D39V [1]	0.154

fitness, S. pneumoniae D39V [2]
Conditions	first compound 1.073 µg/mL	first compound 1.25 µg/mL	first compound 2.145 µg/mL	first compound 2.5 µg/mL	first compound 4.29 µg/mL	first compound 5 µg/mL
partner 0.03125 µg/mL	–	0.993	–	≥ 1	–	0.966
partner 0.0625 µg/mL	–	0.909	–	0.923	–	0.913
partner 0.125 µg/mL	0.884	0.759	0.851	0.81	0.84	0.731
partner 0.5 µg/mL	–	–	–	–	0.415	–

Clc1ccc(COC(Cn2ccnc2)c2ccc(Cl)cc2Cl)c(Cl)c1 (centres undefined) [Miconazole] + CO[C@H]1/C=C/O[C@@]2(C)Oc3c(C)c(O)c4c(O)c(c(/C=N/N5CCN(C)CC5)c(O)c4c3C2=O)NC(=O)/C(C)=C\C=C\[C@H](C)[C@H](O)[C@@H](C)[C@@H](O)[C@@H](C)[C@H](OC(C)=O)[C@@H]1C [Rifampicin]
Conditions	Bliss interaction score
B. subtilis 168	0.0476
S. aureus DSM 20231	0.035
S. aureus Newman	0.0801
S. pneumoniae D39V [1]	0.169

fitness, S. pneumoniae D39V [2]
Conditions	first compound 1.073 µg/mL	first compound 1.25 µg/mL	first compound 2.145 µg/mL	first compound 2.5 µg/mL	first compound 4.29 µg/mL	first compound 5 µg/mL
partner 0.05 µg/mL	0.974	0.774	1	0.806	0.998	0.779
partner 0.1 µg/mL	–	0.411	–	0.41	0.776	–
partner 0.2 µg/mL	0.363	–	0.37	–	0.477	–

fitness, S. pneumoniae D39V [2], one replicate
Conditions	first compound 1.25 µg/mL	first compound 2.5 µg/mL	first compound 5 µg/mL
partner 0.025 µg/mL	0.856	0.861	0.853
partner 0.2 µg/mL	0	0	0

CC[C@H]1OC(=O)[C@H](C)C(=O)[C@H](C)[C@@H](O[C@@H]2O[C@H](C)C[C@H](N(C)C)[C@H]2O)[C@](C)(OC)C[C@@H](C)C(=O)[C@H](C)[C@H]2N(CCCCn3cnc(-c4cccnc4)c3)C(=O)O[C@]12C [Telithromycin] + COc1cc(Cc2cnc(N)nc2N)cc(OC)c1OC [Trimethoprim]
Conditions	Bliss interaction score
B. subtilis 168	-0.243
S. aureus DSM 20231	0.0276
S. aureus Newman	0.0595
S. pneumoniae D39V [1]	0.0323

CC[C@H]1OC(=O)[C@H](C)C(=O)[C@H](C)[C@@H](O[C@@H]2O[C@H](C)C[C@H](N(C)C)[C@H]2O)[C@](C)(OC)C[C@@H](C)C(=O)[C@H](C)[C@H]2N(CCCCn3cnc(-c4cccnc4)c3)C(=O)O[C@]12C [Telithromycin] + Oc1cc(Cl)ccc1Oc1ccc(Cl)cc1Cl [Triclosan]
Conditions	Bliss interaction score
B. subtilis 168	0.017
S. aureus DSM 20231	-0.0253
S. aureus Newman	0.0266
S. pneumoniae D39V [1]	0.0532

Oc1cc(Cl)ccc1Oc1ccc(Cl)cc1Cl [Triclosan] + CC1=C\[C@@H](O)CC(=O)Cc2nc(co2)C(=O)N2CCC=C2C(=O)O[C@H](C(C)C)[C@H](C)/C=C/C(=O)NC\C=C\1 [Virginiamycin M1]
Conditions	Bliss interaction score
B. subtilis 168	0.0973
S. aureus DSM 20231	0.108
S. aureus Newman	0.034
S. pneumoniae D39V [1]	0.0386

Oc1cc(Cl)ccc1Oc1ccc(Cl)cc1Cl [Triclosan] + CN[C@H](CC(C)C)C(=O)N[C@H]1C(=O)N[C@@H](CC(N)=O)C(=O)N[C@H]2C(=O)N[C@H]3C(=O)N[C@H](C(=O)N[C@H](C(=O)O)c4cc(O)cc(O)c4-c4cc3ccc4O)[C@H](O)c3ccc(c(Cl)c3)Oc3cc2cc(c3O[C@@H]2O[C@H](CO)[C@@H](O)[C@H](O)[C@H]2O[C@H]2C[C@](C)(N)[C@H](O)[C@H](C)O2)Oc2ccc(cc2Cl)[C@H]1O [Vancomycin]
Conditions	Bliss interaction score
B. subtilis 168	0.0377
S. aureus DSM 20231	0.0768
S. aureus Newman	0.0453
S. pneumoniae D39V [1]	0.0833

Oc1cc(Cl)ccc1Oc1ccc(Cl)cc1Cl [Triclosan] + COc1cc(Cc2cnc(N)nc2N)cc(OC)c1OC [Trimethoprim]
Conditions	Bliss interaction score
B. subtilis 168	0.13
S. aureus DSM 20231	-0.0451
S. aureus Newman	0.0267
S. pneumoniae D39V [1]	0.113
